The source of these data is patent US6193985A, “Tocopherol compositions for delivery of biologically active agents” (priority 1994, dated 2001).

On series [1], the source says:
For the following, non-limiting, sparingly soluble drugs in water, the solubility in α-tocopherol and sesame oil are listed in Table 1:
Sesame oil was chosen as the reference, because it is a very commonly used and well tolerated vegetable oil. The solubilities in sesame oil and α-tocopherol were investigated by visual inspection of the saturation point.

For series [2] the following is noted: cited from earlier work.
The conditions of series [3]: cited from earlier work. The source holds these as a separate data set.
Where [4] appears, read: solubility in sesame oil (reference).

Where two headings read alike, the source gives them in different places. Where only a bound is given, the exact number is not on record here.

Regarding `Cc1ncc([N+](=O)[O-])n1CCOC(=O)c1ccccc1` [Metronidazole benzoate], in series [1] (setting [4]), the “g drug in 100 g of sesame oil” value is recorded as less than 2 g drug in 100 g. With `C(=C\c1ccccc1)/CN1CCN(C(c2ccccc2)c2ccccc2)CC1` [Cinnarizine, cinnarizine], in series [1], the “g drug in 100 g of sesame oil” value was 2-4 g drug in 100 g and the “g drug in 100 g of α-tocopherol” value is 11-18 g drug in 100 g. For the same compound, the “solubility in water (in words)” value in series [2] was “very low water solubility”. For the same compound, the oral bioavailability result in series [3] (if dissolved in a vehicle before administration) was “higher oral bioavailability”.

Take `Cc1ncc2n1-c1ccc(Cl)cc1C(c1ccccc1F)=NC2` [Midazolam, midazolam]: the “g drug in 100 g of α-tocopherol” value in series [1] (solubility in α-tocopherol) is given as more than 13 g drug in 100 g. Also, the first-pass effect result in series [3] (after oral administration) is given as “very high first-pass effect”.

As for `CC(=O)[C@H]1CC[C@H]2[C@@H]3CCC4=CC(=O)CC[C@]4(C)[C@H]3CC[C@]12C` [Progesterone], the “g drug in 100 g of α-tocopherol” value in series [1] (solubility in α-tocopherol) is on record as more than 30 g drug in 100 g.

Regarding `CCN(CC)C(=S)SSC(=S)N(CC)CC` [Disulfiram, disulfiram], the “g drug in 100 g of α-tocopherol” value in series [1] (solubility in α-tocopherol) came out at 5 g drug in 100 g. Consider `CCCC1O[C@@H]2C[C@H]3[C@@H]4CCC5=CC(=O)C=C[C@]5(C)[C@H]4[C@@H](O)C[C@]3(C)[C@]2(C(=O)CO)O1` (stereo partly shown) [Budesonide, budesonide], for which the “g drug in 100 g of sesame oil” value in series [1] (setting [4]) was less than 0.1 g drug in 100 g. On to `CCN(CC)CCNC(=O)c1cc(Cl)c(N)cc1OC` [Metoclopramide], for which, in series [1], the “g drug in 100 g of sesame oil” value is reported as less than 2 g drug in 100 g and the “g drug in 100 g of α-tocopherol” value is reported as 2-4 g drug in 100 g.

Regarding `Clc1ccc(COC(Cn2ccnc2)c2ccc(Cl)cc2Cl)c(Cl)c1` (stereo not shown) [Miconazole, miconazole], the “g drug in 100 g of α-tocopherol” value in series [1] (solubility in α-tocopherol) came out at 60 g drug in 100 g.
